Where two headings read alike, the source gives them in different places.
Experiments:
[1] = biological target: T1, AEA-DA lipid probe targets in Neuro2a cells (Mus musculus, UniProt Q07646)
T1 sequence (Q07646 1-335): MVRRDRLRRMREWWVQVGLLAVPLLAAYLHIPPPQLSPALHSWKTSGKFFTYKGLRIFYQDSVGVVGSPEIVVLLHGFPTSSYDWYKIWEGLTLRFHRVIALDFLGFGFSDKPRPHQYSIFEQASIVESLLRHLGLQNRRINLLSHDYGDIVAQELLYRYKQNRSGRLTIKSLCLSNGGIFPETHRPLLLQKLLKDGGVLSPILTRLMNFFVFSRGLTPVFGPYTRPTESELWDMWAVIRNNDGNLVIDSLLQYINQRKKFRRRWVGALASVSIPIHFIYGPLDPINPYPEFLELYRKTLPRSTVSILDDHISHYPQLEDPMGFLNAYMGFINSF

[2] = biological target: AEA-DA lipid probe targets in Neuro2a cells (Mus musculus, UniProt Q60716)
[3] = biological target: T2, AEA-DA lipid probe targets in Neuro2a cells (Mus musculus, UniProt Q61753)
T2 sequence (Q61753 1-533): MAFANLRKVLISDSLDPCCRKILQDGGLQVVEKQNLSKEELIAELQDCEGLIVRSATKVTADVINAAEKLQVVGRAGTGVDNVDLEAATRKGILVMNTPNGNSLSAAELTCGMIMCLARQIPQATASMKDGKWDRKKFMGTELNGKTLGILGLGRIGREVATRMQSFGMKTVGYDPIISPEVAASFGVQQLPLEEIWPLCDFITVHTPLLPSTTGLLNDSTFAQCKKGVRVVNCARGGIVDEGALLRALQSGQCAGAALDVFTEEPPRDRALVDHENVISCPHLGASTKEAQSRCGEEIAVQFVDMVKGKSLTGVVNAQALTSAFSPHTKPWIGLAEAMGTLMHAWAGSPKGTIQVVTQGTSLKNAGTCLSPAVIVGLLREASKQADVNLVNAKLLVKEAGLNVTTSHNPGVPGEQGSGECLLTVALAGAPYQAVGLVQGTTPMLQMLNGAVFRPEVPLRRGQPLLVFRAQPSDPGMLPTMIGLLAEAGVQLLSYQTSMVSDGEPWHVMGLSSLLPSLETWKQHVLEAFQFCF

[4] = biological target: T3, AEA-DA lipid probe targets in Neuro2a cells (Mus musculus, UniProt Q7TMK9)
T3 sequence (Q7TMK9 1-623): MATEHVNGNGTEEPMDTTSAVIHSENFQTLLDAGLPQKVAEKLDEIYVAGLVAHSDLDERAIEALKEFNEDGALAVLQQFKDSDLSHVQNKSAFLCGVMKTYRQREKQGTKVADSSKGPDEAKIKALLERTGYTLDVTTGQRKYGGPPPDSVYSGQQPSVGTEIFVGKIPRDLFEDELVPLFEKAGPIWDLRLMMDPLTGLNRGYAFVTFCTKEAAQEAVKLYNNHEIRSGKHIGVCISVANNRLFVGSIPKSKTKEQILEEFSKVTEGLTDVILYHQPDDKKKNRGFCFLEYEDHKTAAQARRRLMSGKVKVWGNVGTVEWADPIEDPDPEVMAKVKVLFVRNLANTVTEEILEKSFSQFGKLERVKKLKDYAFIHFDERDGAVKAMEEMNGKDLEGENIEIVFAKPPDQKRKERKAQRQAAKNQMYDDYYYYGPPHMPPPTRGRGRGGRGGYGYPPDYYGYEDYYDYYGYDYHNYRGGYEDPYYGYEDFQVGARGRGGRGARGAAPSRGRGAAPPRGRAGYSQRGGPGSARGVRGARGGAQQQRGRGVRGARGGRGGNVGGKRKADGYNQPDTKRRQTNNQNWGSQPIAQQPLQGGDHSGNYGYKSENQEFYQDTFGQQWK

[5] = biological target: T4, AEA-DA lipid probe targets in Neuro2a cells (Mus musculus, UniProt Q924Z4); settings: for SILAC ratio, CERS2 (Q924Z4): Neuro2a cells, AEA-DA probe
T4 sequence (Q924Z4 1-380): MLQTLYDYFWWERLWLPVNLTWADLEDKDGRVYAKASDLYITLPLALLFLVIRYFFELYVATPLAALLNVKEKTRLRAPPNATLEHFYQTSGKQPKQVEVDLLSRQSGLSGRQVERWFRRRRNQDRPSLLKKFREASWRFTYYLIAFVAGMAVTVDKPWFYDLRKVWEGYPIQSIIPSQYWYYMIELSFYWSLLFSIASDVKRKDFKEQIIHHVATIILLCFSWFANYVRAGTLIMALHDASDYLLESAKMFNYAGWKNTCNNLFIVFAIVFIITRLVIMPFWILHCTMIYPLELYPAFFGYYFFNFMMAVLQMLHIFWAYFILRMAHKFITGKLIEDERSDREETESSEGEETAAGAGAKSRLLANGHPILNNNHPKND

[6] = biological target: T5, AEA-DA lipid probe targets in Neuro2a cells (Mus musculus, UniProt Q99JY4); settings: for SILAC ratio, TRABD (Q99JY4): Neuro2a cells, AEA-DA probe
T5 sequence (Q99JY4 1-376): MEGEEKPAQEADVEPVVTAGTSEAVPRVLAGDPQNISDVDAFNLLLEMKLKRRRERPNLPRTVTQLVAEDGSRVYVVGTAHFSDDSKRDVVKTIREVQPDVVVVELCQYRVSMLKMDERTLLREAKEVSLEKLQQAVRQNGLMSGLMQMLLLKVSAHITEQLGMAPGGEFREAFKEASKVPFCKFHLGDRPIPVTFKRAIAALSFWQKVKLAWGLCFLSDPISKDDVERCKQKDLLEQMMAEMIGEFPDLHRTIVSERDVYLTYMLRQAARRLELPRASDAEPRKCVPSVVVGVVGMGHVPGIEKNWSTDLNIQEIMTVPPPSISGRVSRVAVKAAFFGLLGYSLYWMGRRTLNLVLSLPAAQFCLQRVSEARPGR

[7] = biological target: AEA-DA lipid probe targets in Neuro2a cells (Mus musculus, UniProt Q9Z0V7)
[8] = system: AEA-DA lipid probe targets in Neuro2a cells; settings: for SILAC ratio, GM20425 (E9Q035): AEA-DA probe

Sequence of AEA-DA lipid probe targets in Neuro2a cells (Mus musculus, UniProt Q60716) (Q60716 24-537): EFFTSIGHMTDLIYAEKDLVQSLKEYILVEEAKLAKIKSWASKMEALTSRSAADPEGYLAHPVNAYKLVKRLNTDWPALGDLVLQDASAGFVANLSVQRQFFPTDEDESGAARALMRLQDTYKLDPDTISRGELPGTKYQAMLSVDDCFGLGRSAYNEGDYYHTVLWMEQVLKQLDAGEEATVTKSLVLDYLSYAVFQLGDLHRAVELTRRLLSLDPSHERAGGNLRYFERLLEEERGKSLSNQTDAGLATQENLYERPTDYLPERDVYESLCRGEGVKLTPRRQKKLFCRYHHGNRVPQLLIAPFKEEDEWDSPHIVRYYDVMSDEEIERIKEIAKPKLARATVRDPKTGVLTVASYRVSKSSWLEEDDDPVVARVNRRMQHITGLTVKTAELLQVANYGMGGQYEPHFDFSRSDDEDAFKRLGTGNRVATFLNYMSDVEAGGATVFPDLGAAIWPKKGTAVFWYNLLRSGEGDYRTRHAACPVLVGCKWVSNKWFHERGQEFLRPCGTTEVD
Sequence of AEA-DA lipid probe targets in Neuro2a cells (Mus musculus, UniProt Q9Z0V7) (Q9Z0V7 whole entry): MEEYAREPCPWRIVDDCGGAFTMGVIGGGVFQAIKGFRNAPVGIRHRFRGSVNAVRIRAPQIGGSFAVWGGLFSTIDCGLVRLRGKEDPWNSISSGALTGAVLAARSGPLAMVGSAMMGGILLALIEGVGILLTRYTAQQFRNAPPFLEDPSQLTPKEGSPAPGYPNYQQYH

`CCCCC/C=C\C/C=C\C/C=C\C/C=C\CCCC(=O)NCCO` [AEA, anandamide, reference compound] was tested, and the “SILAC ratio Mest” value ([1]; competitor 200 μM) was 1.5, the “SILAC ratio P4ha2” value ([2]; competitor 200 μM) was 1.0 and the “SILAC ratio Phgdh” value ([3]; competitor 200 μM) was 1.2. For the same molecule, the “SILAC ratio Syncrip” value ([4]; competitor 200 μM) was 1.2, the “SILAC ratio, CERS2 (Q924Z4)” value ([5]; competitor 200 μM) was 2.4 and the “SILAC ratio, Cers2” value ([5]; competitor 200 μM) was 2.4. The “SILAC ratio, TRABD (Q99JY4)” value ([6]; competitor 200 μM) was 1.0, the “SILAC ratio, Trabd” value ([6]; competitor 200 μM) was 1.0 and the “SILAC ratio, Timm17b” value ([7]; competitor 200 μM) was 1.6. The “competition of AEA-DA labeling by lipid competitor” value ([8]; Neuro2a cells, 200 μM) was “competed with several targets”, the “SILAC ratio, GM20425 (E9Q035)” value ([8]; Neuro2a cells, competitor 200 μM) was 2.3 and the “SILAC ratio Akr1c12” value ([8]; competitor 200 μM) was 1.8. For the same molecule, the “SILAC ratio Uncharacterized” value ([8]; competitor 200 μM) was 1.7, the “SILAC ratio, Akr1b10” value ([8]; competitor 200 μM) was 4.5 and the “SILAC ratio, Gm20425” value ([8]; competitor 200 μM) was 2.3. For the same molecule, the “SILAC ratio, Gm20671” value ([8]; competitor 200 μM) was 1.8, the “SILAC ratio, Tmpo” value ([8]; competitor 200 μM, first Tmpo line (r51)) was 2.0 and the “SILAC ratio, Tmpo” value ([8]; competitor 200 μM, second Tmpo line (r55)) was 1.9.
For `O=C(/C=C/c1cccnc1)NCCCCC1CCN(C(=O)c2ccccc2)CC1` [FK-866, reference compound], the “SILAC ratio Mest” value ([1]; competitor 25 μM) was 1.2, the “SILAC ratio P4ha2” value ([2]; competitor 25 μM) was 1.1 and the “SILAC ratio Phgdh” value ([3]; competitor 25 μM) was 1.3. The “SILAC ratio Syncrip” value ([4]; competitor 25 μM) was 1.1, the “SILAC ratio, CERS2 (Q924Z4)” value ([5]; competitor 25 μM) was 1.2 and the “SILAC ratio, Cers2” value ([5]; competitor 25 μM) was 1.2. The “SILAC ratio, TRABD (Q99JY4)” value ([6]; competitor 25 μM) was 1.2, the “SILAC ratio, Trabd” value ([6]; competitor 25 μM) was 1.2 and the “SILAC ratio, Timm17b” value ([7]; competitor 25 μM) was 1.2. The “competition of probe labeling of NAMPT and ABCB1B” value ([8]; Neuro2a cells, AEA-DA 5 μM, drug 25 μM) was “competed probe-labeling”, the “SILAC ratio, GM20425 (E9Q035)” value ([8]; Neuro2a cells, competitor 25 μM) was 1.2 and the “SILAC ratio Akr1c12” value ([8]; competitor 25 μM) was 1.3. For the same molecule, the “SILAC ratio H2-K1” value ([8]; competitor 25 μM) was 1.0, the “SILAC ratio Nup205” value ([8]; competitor 25 μM) was 0.9 and the “SILAC ratio Uncharacterized” value ([8]; competitor 25 μM) was 1.3. The “SILAC ratio, Gm20425” value ([8]; competitor 25 μM) was 1.2, the “SILAC ratio, Tmpo” value ([8]; competitor 25 μM, first Tmpo line (r51)) was 1.0 and the “SILAC ratio, Tmpo” value ([8]; competitor 25 μM, second Tmpo line (r55)) was 1.1.

Reference: patent publication US10168342B2, “Lipid probes and uses thereof” (THE SCRIPPS RESEARCH INSTITUTE, priority 2015, dated 2019)
